Laboratory results taken from PubChem BioAssay AID1845203 (Molecular Pharmacology Branch, DTP, NCI, 2023).
Values joined by “and” are separate entries in the source; they are usually repeats but may differ in a detail not shown here. Identical values can stand only once. Each block holds one molecule with its values, some of them ahead of it.

System: G-401 tumor spheroids, viability % test/control
Assay: Anticancer human tumor G-401 cell line growth inhibition;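 further: spheroids exposed to compound for 7 days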;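 on viability, T/C: 100% = DMSO vehicle-treated spheroids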
Settings: spheroids with HUVEC and MSC; for viability, T/C: stronger effect = lower value
How it was run: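 Single agents and combinations were tested on spheroids built from tumor cells plus HUVEC and hMSC, at half-log dilutions starting at or near clinical Cmax, else 10 microM; final DMSO 0.25% (v/v).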

[1] = compound alone, run of 12/02/2019

Structure (SMILES): Cn1ncnc1[C@H]1c2n[nH]c(=O)c3cc(F)cc(c23)N[C@@H]1c1ccc(F)cc1 + Cn1nnc2c(C(N)=O)ncn2c1=O
IC50 (curve of first compound, second compound 1 µM): 156 nM
IC50 (curve of first compound, second compound 3.16 µM): 57.5 nM
IC50 (curve of first compound, second compound 10 µM): 22.2 nM
IC50 (curve of first compound, second compound 31.6 µM): < 9.49 nM
IC50 (curve of first compound, second compound 100 µM): < 9.49 nM
viability, T/C (second compound 1 µM, first compound 0.00949 µM): 81.7%
viability, T/C (second compound 1 µM, first compound 0.03 µM): 73.9%
viability, T/C (second compound 1 µM, first compound 0.0949 µM): 57.2%
viability, T/C (second compound 1 µM, first compound 0.3 µM): 39.6%
viability, T/C (second compound 1 µM, first compound 0.949 µM): 23.3%
viability, T/C (second compound 1 µM, first compound 3 µM): 12.6%
viability, T/C (second compound 3.16 µM, first compound 0.00949 µM): 87.8%
viability, T/C (second compound 3.16 µM, first compound 0.03 µM): 54.6%
viability, T/C (second compound 3.16 µM, first compound 0.0949 µM): 45.3%
viability, T/C (second compound 3.16 µM, first compound 0.3 µM): 30.5%
viability, T/C (second compound 3.16 µM, first compound 0.949 µM): 23.4%
viability, T/C (second compound 3.16 µM, first compound 3 µM): 13.2%
viability, T/C (second compound 10 µM, first compound 0.00949 µM): 63%
viability, T/C (second compound 10 µM, first compound 0.03 µM): 44.9%
viability, T/C (second compound 10 µM, first compound 0.0949 µM): 32.4%
viability, T/C (second compound 10 µM, first compound 0.3 µM): 23.3%
viability, T/C (second compound 10 µM, first compound 0.949 µM): 15.7%
viability, T/C (second compound 10 µM, first compound 3 µM): 10.4%
viability, T/C (second compound 31.6 µM, first compound 0.00949 µM): 35.6%
viability, T/C (second compound 31.6 µM, first compound 0.03 µM): 21.3%
viability, T/C (second compound 31.6 µM, first compound 0.0949 µM): 16.4%
viability, T/C (second compound 31.6 µM, first compound 0.3 µM): 13.9%
viability, T/C (second compound 31.6 µM, first compound 0.949 µM): 10.4%
viability, T/C (second compound 31.6 µM, first compound 3 µM): 9.51%
viability, T/C (second compound 100 µM, first compound 0.00949 µM): 14.1%
viability, T/C (second compound 100 µM, first compound 0.03 µM): 11.6%
viability, T/C (second compound 100 µM, first compound 0.0949 µM): 10.8%
viability, T/C (second compound 100 µM, first compound 0.3 µM): 10.3%
viability, T/C (second compound 100 µM, first compound 0.949 µM): 8.87%
viability, T/C (second compound 100 µM, first compound 3 µM): 6.62%

Structure (SMILES): COc1ccc([C@@H](O)c2cc(-c3ncnc4cc(N5CCOCC5)ccc34)c(F)cc2Cl)nn1
viability, T/C (compound 0.0316 µM): 101% and 107% and 106%
viability, T/C (compound 0.1 µM): 91.2% and 94.8% and 97.8%
viability, T/C (compound 0.316 µM): 82.3% and 92.2% and 94.8%
viability, T/C (compound 1 µM): 50.2% and 63.6% and 69.6%
viability, T/C (compound 3.16 µM): 22.2% and 24% and 31%
viability, T/C (compound 10 µM): 11% and 10.1% and 15.4%
IC50 (curve of compound): 1020 nM and 1480 nM and 1800 nM

Structure (SMILES): Cc1sc2c(c1C)C(c1ccc(Cl)cc1)=NC(CC(=O)Nc1ccc(O)cc1)c1nnc(C)n1-2 (centres undefined)
viability, T/C (compound 0.00949 µM): 93.3% and 106% and 91.1%
viability, T/C (compound 0.03 µM): 86.6% and 75.1% and 80.9%
viability, T/C (compound 0.0949 µM): 65.4% and 56.4% and 67.6%
viability, T/C (compound 0.3 µM): 34.7% and 35.5% and 37.8%
viability, T/C (compound 0.949 µM): 20.1% and 20% and 21.8%
viability, T/C (compound 3 µM): 10% and 11.8% and 7.68%
IC50 (curve of compound): 173 nM and 122 nM and 192 nM

Structure (SMILES): COc1cc(C)[nH]c(=O)c1CN1CCc2c(Cl)cc(C(OC)C3COC3)c(Cl)c2C1=O (centres undefined)
viability, T/C (compound 0.0316 µM): 76.2% and 80.4% and 95.5%
viability, T/C (compound 0.1 µM): 52.4% and 56.5% and 66.3%
viability, T/C (compound 0.316 µM): 35.7% and 33.3% and 42.5%
viability, T/C (compound 1 µM): 30.3% and 28.9% and 35.6%
viability, T/C (compound 3.16 µM): 28% and 18.8% and 33.9%
viability, T/C (compound 10 µM): 26.9% and 19% and 31.9%
IC50 (curve of compound): 118 nM and 138 nM and 223 nM

IC50 [1]: > 100000 nM
Structure (SMILES): Cn1nnc2c(C(N)=O)ncn2c1=O
viability, T/C (compound 1 µM): 102% [middle of 10 runs]
viability, T/C (compound 3.16 µM): 102% [middle of 10 runs]
viability, T/C (compound 10 µM): 103% [middle of 10 runs]
viability, T/C (compound 31.6 µM): 96.8% [middle of 10 runs]
viability, T/C (compound 100 µM): 94.8% [middle of 9 runs]

IC50 [1]: 8.64 nM [middle of 5 runs]
IC50 (compound alone, run of 12/12/2019): 9.18 nM [middle of 5 runs]
Structure (SMILES): CC[C@@]1(O)C(=O)OCc2c1cc1n(c2=O)Cc2cc3c(CN(C)C)c(O)ccc3nc2-1
viability, T/C (compound 0.003 µM): 78.6% [middle of 10 runs]
viability, T/C (compound 0.00949 µM): 48.8% [middle of 10 runs]
viability, T/C (compound 0.03 µM): 16% [middle of 10 runs]
viability, T/C (compound 0.0949 µM): 7.7% [middle of 10 runs]
viability, T/C (compound 0.3 µM): 5.06% [middle of 10 runs]

Structure (SMILES): COc1cc(C)[nH]c(=O)c1CN1CCc2c(Cl)cc(C(OC)C3COC3)c(Cl)c2C1=O (centres undefined) + COc1cc2c(cc1O)CCNC21CSC2c3c(OC(C)=O)c(C)c4c(c3C(COC1=O)N1C(O)C3Cc5cc(C)c(OC)c(O)c5C(C21)N3C)OCO4
IC50 (curve of first compound, second compound 30 pM): 106 nM
IC50 (curve of first compound, second compound 94.9 pM): 87 nM
IC50 (curve of first compound, second compound 0.0003 µM): < 31.6 nM
IC50 (curve of first compound, second compound 0.000949 µM): < 31.6 nM
IC50 (curve of first compound, second compound 0.003 µM): < 31.6 nM
viability, T/C (second compound 30 pM, first compound 0.0316 µM): 83.1%
viability, T/C (second compound 30 pM, first compound 0.1 µM): 50.9%
viability, T/C (second compound 30 pM, first compound 0.316 µM): 33.9%
viability, T/C (second compound 30 pM, first compound 1 µM): 28.1%
viability, T/C (second compound 30 pM, first compound 3.16 µM): 26.9%
viability, T/C (second compound 30 pM, first compound 10 µM): 26.1%
viability, T/C (second compound 94.9 pM, first compound 0.0316 µM): 74.1%
viability, T/C (second compound 94.9 pM, first compound 0.1 µM): 44.6%
viability, T/C (second compound 94.9 pM, first compound 0.316 µM): 36.1%
viability, T/C (second compound 94.9 pM, first compound 1 µM): 27.3%
viability, T/C (second compound 94.9 pM, first compound 3.16 µM): 22.7%
viability, T/C (second compound 94.9 pM, first compound 10 µM): 22.8%
viability, T/C (second compound 0.0003 µM, first compound 0.0316 µM): 33.1%
viability, T/C (second compound 0.0003 µM, first compound 0.1 µM): 30.2%
viability, T/C (second compound 0.0003 µM, first compound 0.316 µM): 23%
viability, T/C (second compound 0.0003 µM, first compound 1 µM): 20.4%
viability, T/C (second compound 0.0003 µM, first compound 3.16 µM): 18.4%
viability, T/C (second compound 0.0003 µM, first compound 10 µM): 18.1%
viability, T/C (second compound 0.000949 µM, first compound 0.0316 µM): 4.72%
viability, T/C (second compound 0.000949 µM, first compound 0.1 µM): 5.11%
viability, T/C (second compound 0.000949 µM, first compound 0.316 µM): 3.78%
viability, T/C (second compound 0.000949 µM, first compound 1 µM): 4%
viability, T/C (second compound 0.000949 µM, first compound 3.16 µM): 5.07%
viability, T/C (second compound 0.000949 µM, first compound 10 µM): 3.13%
viability, T/C (second compound 0.003 µM, first compound 0.0316 µM): 0.12%
viability, T/C (second compound 0.003 µM, first compound 0.1 µM): 0.12%
viability, T/C (second compound 0.003 µM, first compound 0.316 µM): 0.11%
viability, T/C (second compound 0.003 µM, first compound 1 µM): 0.11%
viability, T/C (second compound 0.003 µM, first compound 3.16 µM): 0.11%
viability, T/C (second compound 0.003 µM, first compound 10 µM): 0.18%
